These results are taken from patent US7566724B2, “Glycine derivative and use thereof” (Toray Industries, Inc., priority 2004, dated 2009).

The subject of one data set is Jurkat cells. Description: Measurement of Inhibitory Effect on Leukocyte Functions (adhesion of Jurkat cells to ligand-expressing cells or ligand-immobilized plate). It is filed as cell-based. To be noted: Homo sapiens, 0.5 h, read-out: IC50 (adhesion of Jurkat cells). The procedure:
Jurkat cells which are a cell line originated from human acute T cell lymphoma were allowed to react with BCECF-AM at 37° C. for 20 minutes to fluorescently label the cells. The fluorescently labelled Jurkat cells were allowed to react with ligand-expressing cells or with a ligand-immobilized plate at 37° C. for 30 minutes. After removing non-adherent cells by washing, 1% NP40 was added to lyse the adherent cells, and fluorescence intensity was measured with Cytoflow 2300 (Millipore). From the obtained fluorescence intensity, the number of adherent cells was calculated. Each test compound was reacted with the Jurkat cells before the beginning of the adhesion reaction. In Table 18, the IC50 of each compound is shown.

Data set [1] is described as follows: Pharmacokinetic Evaluation in Rats. The data set is classed as in vivo. Particulars: rat, male SD rats, administered orally or intravenously, plasma up to 8 hours, LC/MS/MS; for bioavailability: oral, read-out: BA(%) (bioavailability); for clearance: read-out: CLtot (total clearance) (converted). The procedure: Each compound was dissolved at a concentration of 0.5 mg/ml in PBS or in PBS containing 10% PEG. The compound was administered orally or intravenously to male SD rats (7 to 9 weeks old). Blood was collected from the tail vein at time points up to 8 hours after the administration, and blood plasma was collected by centrifugation from each obtained blood. The blood plasma was pretreated by using the solid-phase extraction method, and the concentration of the compound was analyzed with LC/MS/MS (ESI negative mode).
As the Comparative Compound, 2-[4-((3,5-dichlorobenzensulfonylamino)methyl)benzoylamino]-5-(4-(methyl-pyrimidin-2-ylamino)phenyl)pento-4-ene acid (XXI) described in WO 99/26923 was used.
[“BA” in Table 17 means bioavailability, and “CLtot” means total clearance.]

For data set [2], the system named is leukotriene B4 production by neutrophils. Description: Measurement of Inhibitory Effect on Inflammatory Mediator Production by Leukocytes (ionomycin-induced leukotriene B4 in neutrophils). The data set is classed as cell-based. To be noted: 0.5 h, human neutrophil suspension, 37° C. 30 minutes, EIA. The procedure:
A mixture of human peripheral blood and physiological saline containing 3% dextran was left to stand for 30 minutes and then the upper layer was recovered. The upper layer was overlaid on Histopaque 1077 (SIGMA), and the resultant was centrifuged at 1400 rpm for 30 minutes. The supernatant was removed by aspiration and a buffer was added to the precipitate to prepare a neutrophil suspension (4×10^5 cells/mL). To the neutrophil suspension, ionomycin was added and the mixture was incubated at 37° C. for 30 minutes, followed by quantification of leukotriene B4 by EIA (Amersham, Biotrak EIA system). Each test compound was added to the neutrophil suspension before adding ionomycin. In Table 19, the IC50 of each compound is shown.

Where [3] appears, read: fluorescently labelled Jurkat cells, ligand-expressing cells or ligand-immobilized plate, 37° C. 30 minutes.

By IC50 is commonly meant the concentration at which inhibition is half-maximal. For orientation: bioavailability means dose-corrected exposure relative to a reference, in per cent.

Where a name gives a salt, the structure may show the parent alone. Read-outs that look alike come from different tables or passages of the source.

For the compound `O=C(NC(C/C=C/c1ccc(N(c2ncccn2)C2CCOCC2)cc1)C(=O)O)c1c(Cl)cccc1Cl` (stereo not drawn) [Example 49, (E)-2-(2,6-Dichlorobenzamido)-5-[4-(pyrimidin-2-yl-(tetrahydro-pyran-4-yl)-amino)phenyl]pent-4-enoic acid sodium salt], the IC50 with Jurkat cells (setting [3]) is 79 nM.
On the same count and under the same terms, under `O=C(NC(C/C=C/c1ccc(N(c2ccccc2)c2ncccn2)cc1)C(=O)O)c1c(Cl)cccc1Cl` (stereo not drawn) [Example 47, (E)-2-(2,6-Dichlorobenzamido)-5-[4-(phenyl-pyrimidin-2-ylamino)phenyl]pent-4-enoic acid sodium salt] stands 930 nM; under `O=C(NC(C/C=C/c1ccc(N(Cc2cccnc2)c2ncccn2)cc1)C(=O)O)c1c(Cl)cccc1Cl` (stereo not drawn) [Example 39, (E)-2-(2,6-Dichlorobenzamido)-5-[4-(pyridin-3-ylmethyl-pyrimidin-2-ylamino)phenyl]pent-4-enoic acid sodium salt], 71 nM.
Turning to `O=C(NC(C/C=C/c1ccc(N(Cc2ccccn2)c2ncccn2)cc1)C(=O)O)c1c(Cl)cccc1Cl` (stereo not drawn) [Example 61], the IC50 in the data set with Jurkat cells (setting [3]) amounted to 33 nM.
As to `CCN(c1ccc(/C=C/CC(NC(=O)c2c(Cl)cccc2Cl)C(=O)O)cc1)c1ncccn1` (stereo not drawn) [Example 24, (E)-2-(2,6-Dichlorobenzamido)-5-[4-(ethyl-pyrimidin-2-ylamino)phenyl]pent-4-enoic acid], the IC50 with Jurkat cells (setting [3]) is 220 nM. In data set [1], the bioavailability is 42.3% and the clearance was 12.6 mL/min/kg.
With `O=C(NC(C/C=C/c1ccc(N(Cc2ccc(O)cc2)c2ncccn2)cc1)C(=O)O)c1c(Cl)cccc1Cl` (stereo not drawn) [Example 29, (E)-2-(2,6-Dichlorobenzamido)-5-[4-((4-hydroxy-benzyl)-pyrimidin-2-ylamino)phenyl]pent-4-enoic acid], the IC50 with Jurkat cells (setting [3]) amounted to 41 nM.
Take `COC1(c2ccc(/C=C/CC(NC(=O)c3c(Cl)cccc3Cl)C(=O)O)cc2)CCCOCC1` (stereo not drawn) [Example 10, (E)-2-(2,6-Dichlorobenzamido)-5-[4-(4-methoxyoxepan-4-yl)phenyl]pent-4-enoic acid sodium salt]: the IC50 in the data set with Jurkat cells (setting [3]) was 220 nM.
As to `CCCN(c1ccc(/C=C/CC(NC(=O)c2c(Cl)cccc2Cl)C(=O)O)cc1)c1ncccn1` (stereo not drawn) [Example 57, (E)-2-(2,6-Dichlorobenzamido)-5-[4-(propyl-pyrimidin-2-ylamino)phenyl]pent-4-enoic acid], the IC50 in the data set on Jurkat cells (setting [3]) amounted to 110 nM.
`Cc1cccc(Cl)c1C(=O)NC(C/C=C/c1ccc(N(C)c2ncccn2)cc1)C(=O)O` (stereo not drawn) [Example 67, (E)-2-(2-Chloro-6-methylbenzamido)-5-[4-(methyl-pyrimidin-2-ylamino)phenyl]pent-4-enoic acid]: the IC50 turned out to be 30000 nM in data set [2] and 280 nM in the data set on Jurkat cells (setting [3]).
`COCCN(c1ccc(/C=C/CC(NC(=O)c2c(Cl)cccc2Cl)C(=O)O)cc1)c1ncccn1` (stereo not drawn) [Example 26, (E)-2-(2,6-Dichlorobenzamido)-5-[4-((2-methoxyethyl)-pyrimidin-2-ylamino)phenyl]pent-4-enoic acid sodium salt]: the IC50 in the data set with Jurkat cells (setting [3]) is 36 nM.
As for `CC(C)CN(c1ccc(/C=C/CC(NC(=O)c2c(Cl)cccc2Cl)C(=O)O)cc1)c1ncccn1` (stereo not drawn) [Example 55, (E)-2-(2,6-Dichlorobenzamido)-5-[4-(isobutyl-pyrimidin-2-ylamino)phenyl]pent-4-enoic acid sodium salt], the IC50 with Jurkat cells (Jurkat) was 420 nM.
`COCC1(c2ccc(/C=C/CC(NC(=O)c3c(Cl)cccc3Cl)C(=O)O)cc2)CCOCC1` (stereo not drawn) [Example 8, (E)-2-(2,6-Dichlorobenzamido)-5-[4-(tetrahydro-4-(methoxymethyl)-2H-pyran-4-yl)phenyl]pent-4-enoic acid sodium salt]: the IC50 with Jurkat cells (setting [3]) amounted to 69 nM.
Regarding `O=C(NC(C/C=C/c1ccc(N(CC2CC2)c2ncccn2)cc1)C(=O)O)c1c(Cl)cccc1Cl` (stereo not drawn) [Example 53, (E)-5-[4-(Cyclopropylmethyl-pyrimidin-2-ylamino)phenyl]-2-(2,6-dichlorobenzamido)pent-4-enoic acid sodium salt], the IC50 in the data set with Jurkat cells (Jurkat) came to 120 nM.
`O=C(NC(C/C=C/c1ccc(N(Cc2cscn2)c2ncccn2)cc1)C(=O)O)c1c(Cl)cccc1Cl` (stereo not drawn) [Example 41, (E)-2-(2,6-Dichlorobenzamido)-5-[4-(pyrimidin-2-yl-thiazol-4-ylmethyl-amino)phenyl]pent-4-enoic acid sodium salt]: the IC50 in the data set on Jurkat cells (setting [3]) was 950 nM.
Regarding `CN(c1ccc(/C=C/CC(NC(=O)c2ccc(CNS(=O)(=O)c3cc(Cl)cc(Cl)c3)cc2)C(=O)O)cc1)c1ncccn1` (stereo not drawn) [Comparative Compound, 2-[4-((3,5-dichlorobenzensulfonylamino)methyl)benzoylamino]-5-(4-(methyl-pyrimidin-2-ylamino)phenyl)pento-4-ene acid, reference compound], in data set [1], the bioavailability was 1.7% and the clearance is 21.4 mL/min/kg.
Take `O=C(NC(C/C=C/c1ccc(Oc2ncccn2)cc1)C(=O)O)c1c(Cl)cccc1Cl` (stereo not drawn) [Example 12, (E)-2-(2,6-Dichlorobenzamido)-5-[4-(pyrimidin-2-yloxy)phenyl]pent-4-enoic acid]: in the data set with Jurkat cells (setting [3]), the IC50 worked out at 220 nM.
`N#CCCN(c1ccc(/C=C/CC(NC(=O)c2c(Cl)cccc2Cl)C(=O)O)cc1)c1ncccn1` (stereo not drawn) [Example 31, (E)-5-[4-((2-Cyano-ethyl)-pyrimidin-2-yl-amino)-phenyl]-2-(2,6-dichlorobenzamido)-pent-4-enoic acid sodium salt]: in the data set with Jurkat cells (setting [3]), the concentration for half-maximal inhibition (IC50) is 41 nM.
Consider `O=C(NC(C/C=C/c1ccc(N(Cc2ccncc2)c2ncccn2)cc1)C(=O)O)c1c(Cl)cccc1Cl` (stereo not drawn) [Example 59, (E)-2-(2,6-Dichlorobenzamido)-5-[4-(pyridin-4-ylmethyl-pyrimidin-2-ylamino)phenyl]pent-4-enoic acid], for which the IC50 with Jurkat cells (setting [3]) was found to be 43 nM.
Regarding `Cc1cccc(C)c1C(=O)NC(C/C=C/c1ccc(N(C)c2ncccn2)cc1)C(=O)O` (stereo not drawn) [Example 69, (E)-2-(2,6-Dimethylbenzamido)-5-[4-(methyl-pyrimidin-2-ylamino)phenyl]pent-4-enoic acid], the 50% inhibitory concentration (IC50) with Jurkat cells (setting [3]) is 530 nM.
In the case of `COc1cc(OC)nc(N(C)c2ccc(/C=C/CC(NC(=O)c3c(Cl)cccc3Cl)C(=O)O)cc2)n1` (stereo not drawn) [Example 45, (E)-2-(2,6-Dichlorobenzamido)-5-[4-((4,6-dimethoxy-pyrimidin-2-yl)-methyl-amino)phenyl]pent-4-enoic acid], the IC50 in the data set on Jurkat cells (setting [3]) came out at 890 nM.
On to `COc1ccc(CN(c2ccc(/C=C/CC(NC(=O)c3c(Cl)cccc3Cl)C(=O)O)cc2)c2ncccn2)cc1` (stereo not drawn) [Example 35, (E)-2-(2,6-Dichlorobenzamido)-5-[4-((4-methoxy-benzyl)-pyrimidin-2-ylamino)phenyl]pent-4-enoic acid sodium salt], for which the IC50 in the data set on Jurkat cells (setting [3]) stood at 88 nM.
`CCOC1(c2ccc(/C=C/CC(NC(=O)c3c(Cl)cccc3Cl)C(=O)OC)cc2)CCOCC1` (stereo not drawn) [Example 5, (E)-2-(2,6-Dichlorobenzamido)-5-[4-(4-ethoxytetrahydropyran-4-yl)-phenyl]pent-4-enoic acid methyl ester]: the IC50 in the data set with Jurkat cells (setting [3]) worked out at 100 nM.
Regarding `O=C(NC(C/C=C/c1ccc(N(Cc2ccccc2)c2ncccn2)cc1)C(=O)O)c1c(Cl)cccc1Cl` (stereo not drawn) [Example 33, (E)-5-[4-(Benzyl-pyrimidin-2-yl-amino)-phenyl]-2-(2,6-dichlorobenzamido)-pent-4-enoic acid sodium salt], in data set [2], the IC50 is 16300 nM.
`CCOC1(c2ccc(/C=C/CC(NC(=O)c3c(Cl)cccc3Cl)C(=O)O)cc2)CCOCC1` (stereo not drawn) [Example 6, (E)-2-(2,6-Dichlorobenzamido)-5-[4-(4-ethoxytetrahydropyran-4-yl)-phenyl]pent-4-enoic acid] came in with an IC50 in data set [2] of 5630 nM. In data set [1], the bioavailability is 68.5% and the clearance was 19.8 mL/min/kg.
Turning to `COC(=O)C(C/C=C/c1ccc(N(CCC#N)c2ncccn2)cc1)NC(=O)c1c(F)cccc1F` (stereo not drawn) [Example 70, (E)-5-[4-((2-Cyano-ethyl)-pyrimidin-2-yl-amino)-phenyl]-2-(2,6-difluorobenzamido)-pent-4-enoic acid methyl ester], in data set [1], the bioavailability was determined as 63.4% and the clearance is 8.87 mL/min/kg.
As for `CCCCN(c1ccc(/C=C/CC(NC(=O)c2c(Cl)cccc2Cl)C(=O)O)cc1)c1ncccn1` (stereo not drawn) [Example 37, (E)-5-(4-Butyl-pyrimidin-2-yl-amino)-phenyl]-2-(2,6-dichlorobenzamido)-pent-4-enoic acid sodium salt], the IC50 with Jurkat cells (Jurkat) stood at 160 nM.
